Measured values as given in patent US11938168B2, “Ophthalmic compositions and methods of use therefor” (Auckland Uniservices Limited, priority 2015, dated 2024).

What was measured:
keratocytes = test: TGFβ3 and dexamethasone tested separately, collagen type II production; type: cell-based; settings: agents tested separately
[1] = test system: mink lung epithelial (Mv1Lu) cells; settings: exemplary activity; cited from earlier work

| Compound | collagen type II production in keratocytes (keratocytes) | ED50, inhibition of Mv1Lu cell proliferation [1] [µg/mL] |
| --- | --- | --- |
| TGFβ3: TGFβ3 polypeptide, SEQ ID NO:1; recombinant human TGFβ3 from commercial sources (Abcam, ab52313) | no collagen type II production | ≤ 0.05 |
| C[C@@H]1C[C@H]2[C@@H]3CCC4=CC(=O)C=C[C@]4(C)[C@@]3(F)[C@@H](O)C[C@]2(C)[C@@]1(O)C(=O)CO [dexamethasone, reference compound] | no collagen type II production | – |
